The subject of test [1] is HCT116 WT cells. In words: HCT116 proliferation assay, WT cells (CellTiter-Glo, 6 days). It is filed as cell-based. The note with it: Homo sapiens, HCT-116, 144 h, read-out: Prolif_HCT116-WT IC50. An outline of the steps:
(§1)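 Luminescent viability signal was measured after continuous drug exposure. Before dosing, cells attached overnight (37° C, 5% CO2) in RPMI 1640 + 10% FBS. Dosing used 1:3 steps over 8 or 9 points, starting at 1 or 10 µM, with DMSO-only wells as control.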

For test [2], the target named is PRMT5/MEP50 (Homo sapiens, UniProt O14744). In words: MTase-Glo methyl transferase assay, Method A (Histone H4 peptide, 1 µM MTA, 24 h pre-incubation). It is filed as biochemical. Details: made in house. As to conditions: read-out: PRMT5 MTase Glo Ki (nM, Meth. A). An outline of the steps: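 Luminescent SAH detection (MTase-Glo) after a 2 h room-temperature methylation of 1 µM biotinylated H4 (1-21) peptide by 10 nM PRMT5/MEP50 with 5 µM SAM, in 50 mM Tris pH 8.0.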

Test [3] relates to HCT116 MTAP null cells. In words: HCT116 proliferation assay, MTAP null cells (CellTiter-Glo, 6 days). It is filed as cell-based. As to conditions: HCT116-MTAP null, 144 h, read-out: Protif_ HCT116-MTAP null IC50. The gist of the method: as §1

Each structure is given as a SMILES string.

Chain of PRMT5/MEP50 (O14744 whole entry): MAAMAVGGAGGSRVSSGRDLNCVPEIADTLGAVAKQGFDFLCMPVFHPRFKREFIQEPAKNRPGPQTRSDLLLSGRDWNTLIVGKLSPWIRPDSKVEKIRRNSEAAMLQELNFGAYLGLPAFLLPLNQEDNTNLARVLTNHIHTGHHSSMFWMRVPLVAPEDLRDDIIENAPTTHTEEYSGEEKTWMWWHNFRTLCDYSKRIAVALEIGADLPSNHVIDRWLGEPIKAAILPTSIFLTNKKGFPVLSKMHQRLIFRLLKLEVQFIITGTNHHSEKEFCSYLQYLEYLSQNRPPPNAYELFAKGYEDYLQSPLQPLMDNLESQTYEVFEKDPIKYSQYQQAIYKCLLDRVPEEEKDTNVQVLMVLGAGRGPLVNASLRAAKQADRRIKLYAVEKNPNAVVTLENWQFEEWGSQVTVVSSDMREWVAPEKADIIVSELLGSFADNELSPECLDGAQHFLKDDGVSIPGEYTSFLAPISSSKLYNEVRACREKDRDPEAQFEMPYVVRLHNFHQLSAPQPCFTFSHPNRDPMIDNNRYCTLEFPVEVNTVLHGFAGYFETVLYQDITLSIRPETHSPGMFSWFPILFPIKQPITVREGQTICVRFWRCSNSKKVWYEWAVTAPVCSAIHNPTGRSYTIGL
Chain of PRMT5/MEP50 (Q9BQA1 whole entry partner): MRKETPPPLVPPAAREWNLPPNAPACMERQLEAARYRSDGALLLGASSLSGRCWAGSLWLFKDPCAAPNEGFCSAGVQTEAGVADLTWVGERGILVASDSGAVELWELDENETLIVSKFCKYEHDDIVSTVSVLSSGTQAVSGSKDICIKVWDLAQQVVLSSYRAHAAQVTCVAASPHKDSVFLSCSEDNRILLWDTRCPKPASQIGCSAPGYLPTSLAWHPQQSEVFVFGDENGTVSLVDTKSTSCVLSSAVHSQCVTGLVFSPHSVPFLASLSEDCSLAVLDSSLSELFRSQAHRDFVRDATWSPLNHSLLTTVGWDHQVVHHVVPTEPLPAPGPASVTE

As to `C[C@H](c1ncccn1)N(Cc1ccc(C(F)F)cn1)C(=O)c1cnc2nc(N)c(Br)cc2c1` [Example 407, 7-amino-6-bromo-N-((5-(difluoromethyl)-2-pyridinyl)methyl)-N-((1R)-1-(2-pyrimidinyl)ethyl)-1,8-naphthyridine-3-carboxamide], the values for the IC50 in test [1] and in test [3] were more than 10000 nM and 291 nM, respectively. Besides, the Ki in test [2] was found to be 0.11 nM.

On to `C[C@H](c1ncccn1)N(Cc1ccc(C#N)cn1)C(=O)c1ccc2nc(N)c(Cl)cc2c1` [Example 408, 2-amino-3-chloro-N-((5-cyano-2-pyridinyl)methyl)-N-((1R)-1-(2-pyrimidinyl)ethyl)-6-quinolinecarboxamide], for which the IC50 in test [1] is more than 10000 nM; in test [3], 597 nM. Besides, the Ki in test [2] turned out to be 0.13 nM.

Regarding `Cc1cc2cc(C(=O)N(Cc3ccc(C(F)F)cn3)[C@H](C)c3ncccn3)cnc2nc1N` [Example 409, 7-amino-N-((5-(difluoromethyl)-2-pyridinyl)methyl)-6-methyl-N-((1R)-1-(2-pyrimidinyl)ethyl)-1,8-naphthyridine-3-carboxamide], the values for the IC50 in test [1] and in test [3] were more than 10000 nM and 692 nM, respectively. Moreover, the Ki in test [2] came to 0.24 nM.

Take `C[C@H](c1ncccn1)N(Cc1ccc(C(F)F)cn1)C(=O)c1ccc2nc(N)c(Br)cc2c1` [Example 410, 2-amino-3-bromo-N-((5-(difluoromethyl)-2-pyridinyl)methyl)-N-((1R)-1-(2-pyrimidinyl)ethyl)-6-quinolinecarboxamide]: the IC50 in test [1] was determined as 5390 nM; in test [3], 88 nM. In addition, in test [2], the Ki was determined as 0.04 nM.

As for `COc1ccc(CN(C(=O)c2ccc3nc(N)c(Br)cc3c2)[C@H](C)c2ncccn2)nn1` [Example 411, 2-amino-3-bromo-N-((6-methoxy-3-pyridazinyl)methyl)-N-((1R)-1-(2-pyrimidinyl)ethyl)-6-quinolinecarboxamide], the 50% inhibitory concentration (IC50) is more than 10000 nM in test [1] and 182 nM in test [3]. For the same molecule, in test [2], the Ki was 0.22 nM.

Regarding `C[C@H](c1ncccn1)N(Cc1ccc(Cl)cn1)C(=O)c1ccc2nc(N)c(Br)cc2c1` [Example 412, 2-amino-3-bromo-N-((5-chloro-2-pyridinyl)methyl)-N-((1R)-1-(2-pyrimidinyl)ethyl)-6-quinolinecarboxamide], the results for the IC50 in test [1] and in test [3] were 4050 nM and 123 nM, respectively. Also, the Ki in test [2] came out at 0.18 nM.

In the case of `COc1ccc(CN(C(=O)c2ccc3nc(N)c(Cl)cc3c2)[C@H](C)c2ncccn2)nn1` [Example 413, 2-amino-3-chloro-N-((6-methoxy-3-pyridazinyl)methyl)-N-((1R)-1-(2-pyrimidinyl)ethyl)-6-quinolinecarboxamide], the values for the IC50 in test [1] and in test [3] were more than 10000 nM and 655 nM, respectively. Also, the Ki in test [2] came to 0.65 nM.

With `C[C@H](c1ncccn1)N(Cc1ccc(Cl)cn1)C(=O)c1cnc2nc(N)c(Br)cc2c1` [Example 414, 7-amino-6-bromo-N-((5-chloro-2-pyridinyl)methyl)-N-((1R)-1-(2-pyrimidinyl)ethyl)-1,8-naphthyridine-3-carboxamide], the IC50 in test [1] came to 5180 nM; in test [3], 234 nM. In test [2], the Ki is 0.3 nM.

For the molecule `Cc1cc2cc(C(=O)N(Cc3ccc(Cl)cn3)[C@H](C)c3ncccn3)c(F)cc2nc1N` [Example 415, 2-amino-N-((5-chloro-2-pyridinyl)methyl)-7-fluoro-3-methyl-N-((1R)-1-(2-pyrimidinyl)ethyl)-6-quinolinecarboxamide], the IC50 in test [1] was 490 nM; in test [3], 39 nM. For the same molecule, in test [2], the Ki was determined as 0.54 nM.

As to `Cc1cc2cc(C(=O)N(Cc3ccc(Br)nn3)[C@@H]3CCCn4ncnc43)ccc2nc1N` [Example 416, 2-amino-N-((6-bromo-3-pyridazinyl)methyl)-3-methyl-N-((8R)-5,6,7,8-tetrahydro[1,2,4]triazolo[1,5-a]pyridin-8-yl)-6-quinolinecarboxamide], the values for the IC50 in test [1] and in test [3] were 6650 nM and 262 nM, respectively. In addition, in test [2], the Ki was determined as 0.17 nM.

(Values after patent US20230159510A1, “NOVEL PRMT5 INHIBITORS” (AMGEN INC., priority 2020, published 2023).)
